The record followed here is ChEMBL document CHEMBL5537149, “Design, synthesis, and lead optimization of piperazinyl-pyrimidine analogues as potent small molecules targeting the viral capping machinery of Chikungunya virus” (Eur J Med Chem, 2024).

In general, EC50 refers to the concentration at which the effect is half-maximal. Broadly, the CC50 is the concentration giving 50% cytotoxicity. The half-life is how long it takes for the measured level to halve. As a reminder, the solubility is the concentration that dissolves in the medium under given conditions.

Values after ≈ are worked out from the molar mass of the structure shown. Active and inactive are the calls of the source. The calls are words filed in the database; no cut-off is given here.

Series [1] deals with Caco-2. As to the kind of experiment: Cytotoxicity against human Caco-2 cells incubated for 24 to 72 hrs by MTT assay. Type of series: toxicity, cell-based. To be noted: time 24-72 hrs.
Series [2] deals with Chikungunya virus. As to the kind of experiment: Antiviral activity against Chikungunya virus infected in African green monkey Vero cells assessed as reduction in viral induced cell death incubated for 5 days by MTS reagent based absorbance method. The settings on record: 120 h. Format: functional, organism-based.
Series [3] in a line: Cytotoxicity against African green monkey Vero cells assessed as reduction in overall metabolic activity incubated for 5 days by MTS reagent based absorbance method. Type of series: toxicity, cell-based. To be noted: chlorocebus sabaeus, time 5 day. Background: Formazan colour is commonly taken as a measure of viable cells.
A short description of series [4]: Selectivity index, ratio of CC50 for cytotoxicity against African green monkey Vero cells to EC50 for antiviral activity against Chikungunya virus infected in African green monkey Vero cells assessed as reduction in viral induced cell death. Type of series: toxicity, cell-based. The settings on record: read-out: Ratio CC50/EC50.
The nature of series [5]: Metabolic stability in human liver microsomes assessed as half-life preincubated for 5 mins followed by NADPH addition and measured upto 60 mins by HPLC-MS/MS analysis. Type of series: ADME, Microsome. To be noted: time < 65 min. For orientation: Liver microsomes are vesicles of endoplasmic reticulum, rich in cytochrome P450 enzymes.
Series [6] can be described thus: Aqueous solubility of compound at pH 7.4 by HPLC analysis. Type of series: physicochemical.
Series [7] has as its system Chikungunya virus. As to the kind of experiment: Antiviral activity against Chikungunya virus 899 infected in African green monkey Vero cells assessed as reduction in viral RNA replication preincubated for 2 hrs with subsequent viral infected followed by media replacement with compound and measured after 48 hrs by qRT-PCR analysis. To be noted: dose 0.25-60 µM, time 50.0 hrs. Format: functional, organism-based. (In general: Real-time PCR tracks product formation cycle by cycle.)

In series [8] the test system is Chikungunya virus. The series is described as follows: Antiviral activity against Chikungunya virus 899 infected in African green monkey Vero cells assessed as log10 reduction in intracellular viral level at 60 uM preincubated for 2 hrs with subsequent viral infected followed by media replacement with compound and measured after 48 hrs by qRT-PCR analysis. Type of series: functional. To be noted: time 50 hrs.

In series [9] the test system is Chikungunya virus. As to the kind of experiment: Antiviral activity against Chikungunya virus 899 infected in African green monkey Vero cells assessed as log10 reduction in intracellular viral level at 2.22 uM preincubated for 2 hrs with subsequent viral infected followed by media replacement with compound and measured after 48 hrs by qRT-PCR analysis. Format: functional. To be noted: time 50 hrs.

Series [10] has as its system Chikungunya virus. The series is described as follows: Fold resistance , ratio of EC50 for antiviral activity against CHVB-resistant Chikungunya virus infected in African green monkey Vero cells to EC50 for antiviral activity against wildtype Chikungunya virus 899 infected in African green monkey Vero cells. Format: functional.
For series [11], the system named is Caco-2. As to the kind of experiment: Induction of apoptosis in human Caco-2 cells assessed as increase in caspase-3 expression at 6.25 to 100 uM incubated for 72 hrs by Western blot analysis. Format: toxicity, cell-based. The settings on record: caco-2, 72 h, dose 6.25-100 µM.
The test system of series [12] is Caco-2. As to the kind of experiment: Induction of apoptosis in human Caco-2 cells assessed as increase in PARP expression at 6.25 to 100 uM incubated for 72 hrs by Western blot analysis. Type of series: toxicity, cell-based. The settings on record: caco-2, 72 h, dose 6.25-100 µM.
For series [13], the system named is Semliki Forest virus. The series is described as follows: Antiviral activity against Semliki forest virus infected in African green monkey Vero cells assessed as reduction in virus induced cell death. Format: functional, organism-based.
Series [14] has as its system Sindbis virus. The series is described as follows: Antiviral activity against Sindbis virus HRsp infected in African green monkey Vero cells assessed as reduction in virus induced cell death. Type of series: functional, organism-based.
Series [15] deals with Enterovirus. The series is described as follows: Antiviral activity against Human enterovirus 71 infected in African green monkey Vero cells assessed as reduction in virus induced cell death. Type of series: functional, organism-based.
Series [16] relates to Zika virus. The series is described as follows: Antiviral activity against Zika virus infected in African green monkey Vero cells assessed as reduction in virus induced cell death. Format: functional, organism-based.

Take `CCNc1nc(C)cc(N2CCN(C(=O)c3ccc(Br)cc3)CC2)n1`: the Activity entry is “Non-Toxic” in series [1], “Dose-Dependent Effect” in series [7], “Non-Toxic” in series [11] and “Non-Toxic” in [12]. Moreover, the EC50 in [2] worked out at 0.6 µM. Also, the CC50 at 120 h in series [3] was above 96 µM. Moreover, in [4], the selectivity ratio was above 159. Moreover, the half-life in [5] was above 1 h. This compound also came in with a solubility in series [6] above 120 µM. For the same compound, the “log(activity)” value is given as above 5 in series [8] and around 4.5 in [9]. Also, the “Ratio EC50” value in series [10] is on record as 8.9.

As to `CCNc1nc(C)cc(N2CCN(C(=O)c3ccc(OC)cc3)CC2)n1`, the Activity entry in [1], in [11] and in [12] was “Non-Toxic” each time. The EC50 in series [2] stood at 1.4 µM. The CC50 at 120 h in series [3] was determined as 136 µM. In addition, in series [4], the selectivity ratio was found to be 97. Besides, the half-life in series [5] was above 1 h. The same compound showed a solubility in [6] above 120 µM.

`CCCS(=O)(=O)N1CCN(c2nc(C)cc(NCC)n2)CC1`: the EC50 in series [2] was found to be 70 µM. Besides, the solubility in series [6] is above 120 µM. Also, the result in series [13], in series [14], in series [15] and in series [16] was inactive.

For `CCNc1nc(C)cc(N2CCN(C(=O)c3cccc([N+](=O)[O-])c3)CC2)n1`, the Activity entry is “Non-Toxic” in [1], “Dose-Dependent Effect” in series [7], “Non-Toxic” in series [11] and “Non-Toxic” in [12]. The EC50 in series [2] amounted to 0.7 µM. The CC50 at 120 h in series [3] is above 100 µM. Moreover, the selectivity ratio in series [4] was above 143. Moreover, the half-life in series [5] is above 1 h. In series [6], this compound showed a solubility above 120 µM. The “log(activity)” value in series [9] is given as around 4.5. Further, the “Ratio EC50” value in [10] is given as 13.3.

Take `CCNc1nc(C)cc(N2CCN(C(=O)c3ccc(Cl)c(Cl)c3)CC2)n1`: the Activity result in series [1], in series [11] and in series [12] was “Non-Toxic” throughout. In addition, the concentration for a half-maximal effect (EC50) in series [2] worked out at 0.57 µM. Moreover, the CC50 at 120 h in series [3] is 46 µM. In addition, in series [4], the selectivity ratio was found to be 81. Besides, in series [5], the half-life was above 1 h. In series [6], this compound displayed a solubility of 111 µM (≈ 43.8 µg/mL).

As for `CCNc1nc(C)cc(N2CCN(C(=O)c3ccc([N+](=O)[O-])cc3Cl)CC2)n1`, the Activity result was “Non-Toxic” in series [1], “Dose-Dependent Effect” in [7], “Non-Toxic” in [11] and “Non-Toxic” in series [12]. For the same compound, the EC50 in series [2] was above 0.78 µM. In addition, the CC50 at 120 h in series [3] is above 100 µM. Also, the half-life in series [5] is above 1 h. The compound also yielded a solubility in series [6] of 111 µM (≈ 44.9 µg/mL). In series [10], the “Ratio EC50” value worked out at 15.1.

Take `CCNc1nc(C)cc(N2CCN(C(=O)c3ccc(C)cc3)CC2)n1`: the EC50 in [2] came out at 2.4 µM. Moreover, the CC50 at 120 h in series [3] worked out at 203 µM. For the same compound, the selectivity ratio in [4] was found to be 84. In addition, in [5], the half-life was above 1 h. The compound further came in with a solubility in series [6] above 120 µM.

On to `CCNc1nc(C)cc(N2CCN(C(=O)c3ccc(C(C)(C)C)cc3)CC2)n1`, for which the half-maximal effective concentration (EC50) in [2] came to 2.4 µM. Besides, the cytotoxic concentration (CC50) at 120 h in [3] is 45 µM. For the same compound, the selectivity ratio in series [4] was 19. The half-life in series [5] is above 1 h. The compound further gave a solubility in series [6] of 120 µM (≈ 45.8 µg/mL).

Consider `Cc1cc(N2CCN(S(=O)(=O)c3ccc(Cl)cc3)CC2)nc(NC(C)C)n1`, for which the EC50 in series [2] came to 3.8 µM. Besides, the CC50 at 120 h in series [3] came to 19 µM. In series [4], the selectivity ratio was determined as 4.9. Further, the half-life in series [5] was 0.9 h. Also, the solubility in [6] came out at 76 µM (≈ 31.2 µg/mL).

Consider `CCNc1cc(C)nc(N2CCN(S(=O)(=O)c3ccc4ccccc4c3)CC2)n1`, for which the EC50 in series [2] is 10 µM. Besides, the CC50 at 120 h in series [3] was 17 µM. In addition, in [4], the selectivity ratio is 1.7. Besides, in [5], the half-life was found to be 0.333 h. This compound also yielded a solubility in [6] of 90 µM (≈ 37 µg/mL).

Take `CCNc1nc(C)cc(N2CCN(Cc3ccc(F)cc3)CC2)n1`: the EC50 in series [2] is 22 µM. In addition, in series [3], the 50% cytotoxic concentration (CC50) at 120 h was determined as 46 µM. For the same compound, the selectivity ratio in series [4] turned out to be 2.1. In addition, in series [5], the half-life was above 1 h. The same compound yielded a solubility in [6] of 106 µM (≈ 34.9 µg/mL).

For the compound `CCNc1nc(C)cc(N2CCN(C(=O)c3ccc(F)cc3)CC2)n1`, the Activity entry in series [1], in series [11] and in series [12] was “Non-Toxic” in each case. For the same compound, the EC50 in series [2] amounted to 1.52 µM. Besides, the CC50 at 120 h in series [3] worked out at 165 µM. Also, the selectivity ratio in series [4] was determined as 109. In addition, in series [5], the half-life was above 1 h. Moreover, the solubility in series [6] was above 120 µM. For the same compound, the result in [13], in [14], in series [15] and in [16] was inactive.

Take `CCNc1cc(C)nc(NC2CCN(C(=O)c3cc(Cl)cc(Cl)c3)CC2)n1`: the EC50 in series [2] came out at 12 µM. In series [3], the 50% cytotoxic concentration (CC50) at 120 h came out at 25 µM. Also, the selectivity ratio in series [4] was found to be 2.02. Also, in [5], the half-life was 0.5 h. The same compound showed a solubility in series [6] of 94 µM (≈ 38.4 µg/mL).

Turning to `Cc1cc(N2CCN(C(=O)c3ccc(Cl)cc3)CC2)nc(NC(C)C)n1`, in series [2], the EC50 was found to be 18 µM. In series [3], the CC50 at 120 h is 46 µM. In addition, the selectivity ratio in [4] was found to be 2.6. Moreover, the half-life in series [5] is above 1 h. In [6], this compound displayed a solubility of 115 µM (≈ 43 µg/mL).

Regarding `CCNc1nc(C)cc(N2CCN(C(=O)c3cc(Cl)cc(Cl)c3)CC2)n1`, the Activity entry in [1] is “Non-Toxic”; in series [7], “Dose-Dependent Effect”; in series [11], “Non-Toxic”; in [12] it was “Non-Toxic”. Moreover, the concentration giving a half-maximal response (EC50) in [2] came out at 0.47 µM. In series [3], the half-maximal cytotoxic concentration (CC50) at 120 h is 80 µM. Further, the selectivity ratio in [4] came to 173. In series [5], the half-life was above 1 h. In [6], the solubility was 108 µM (≈ 42.6 µg/mL). For the same compound, the “Ratio EC50” value in series [10] was found to be 9.7.

In the case of `CCCC(=O)N1CCN(c2nc(C)cc(NCC)n2)CC1`, the concentration giving a half-maximal response (EC50) in series [2] was 67 µM. In addition, in series [6], the solubility is above 120 µM. The result in series [13], in series [14], in series [15] and in series [16] was inactive.

Turning to `CCNc1nc(C)cc(N2CCN(C(=O)c3cccc(Br)c3)CC2)n1`, the Activity entry in [1], in [11] and in [12] was “Non-Toxic” each time. For the same compound, the concentration giving a half-maximal response (EC50) in [2] stood at 0.94 µM. Moreover, the CC50 at 120 h in series [3] was above 100 µM. Moreover, the selectivity ratio in series [4] is above 107. Moreover, the half-life in [5] is above 1 h. The solubility in [6] was above 120 µM.

On to `CCNc1nc(C)cc(N2CCN(C(=O)c3ccc(I)cc3)CC2)n1`, for which the Activity result in series [1], in series [11] and in [12] was “Non-Toxic” throughout. In addition, the EC50 in [2] amounted to 0.7 µM. For the same compound, the 50% cytotoxic concentration (CC50) at 120 h in series [3] was 58 µM. In addition, in [4], the selectivity ratio is 82. In addition, in [5], the half-life is above 1 h. The compound also returned a solubility in [6] of 112 µM (≈ 50.5 µg/mL).
